# In patent publication US4372947A, “Antibiotic saframycin S and process for producing the same” (Arai; Tadashi, priority 1980, dated 1983):
# “Also recorded” adds a separate entry of the source. Read-outs that look alike come from different tables or passages of the source.
# Columns and labels:
# [1] = test system: Staphylococcus aureus Smith; experiment: Antimicrobial spectrum (MIC); assay type: cell-based; settings: 1% glucose nutrient agar, 37° C., 24 or 48 hours
# [2] = test system: Staphylococcus albus; experiment: Antimicrobial spectrum (MIC); assay type: cell-based; settings: 1% glucose nutrient agar, 37° C., 24 or 48 hours
# [3] = test system: Staphylococcus citreus; experiment: Antimicrobial spectrum (MIC); assay type: cell-based; settings: 1% glucose nutrient agar, 37° C., 24 or 48 hours
# [4] = test system: Streptococcus faecalis; experiment: Antimicrobial spectrum (MIC); assay type: cell-based; settings: 1% glucose nutrient agar, 37° C., 24 or 48 hours
# [5] = test system: Streptococcus pyogenes Cook; experiment: Antimicrobial spectrum (MIC); assay type: cell-based; settings: blood agar, 37° C., 24 or 48 hours
# [6] = test system: Streptococcus pyogenes 090R; experiment: Antimicrobial spectrum (MIC); assay type: cell-based; settings: blood agar, 37° C., 24 or 48 hours
# [7] = test system: Salina lutea; experiment: Antimicrobial spectrum (MIC); assay type: cell-based
# [8] = test system: Bacillus subtilis PCI219; experiment: Antimicrobial spectrum (MIC); assay type: cell-based; settings: 1% glucose nutrient agar, 37° C., 24 or 48 hours
# [9] = test system: bacillus cereus; experiment: Antimicrobial spectrum (MIC); assay type: cell-based; settings: 1% glucose nutrient agar, 37° C., 24 or 48 hours
# [10] = test system: Corynebacterium dephtheriae; experiment: Antimicrobial spectrum (MIC); assay type: cell-based
# [11] = test system: Corynebacterium xerosis; experiment: Antimicrobial spectrum (MIC); assay type: cell-based; settings: 1% glucose nutrient agar, 37° C., 24 or 48 hours
# [12] = test system: Mycobacterium sp. 607; experiment: Antimicrobial spectrum (MIC); assay type: cell-based; settings: 3% glycerol nutrient agar (acid-fast bacteria), 37° C., 24 or 48 hours
# [13] = test system: Mycobacterium phlei; experiment: Antimicrobial spectrum (MIC); assay type: cell-based; settings: 3% glycerol nutrient agar (acid-fast bacteria), 37° C., 24 or 48 hours
# [14] = test system: Mycobacterium avium; experiment: Antimicrobial spectrum (MIC); assay type: cell-based; settings: 3% glycerol nutrient agar (acid-fast bacteria), 37° C., 24 or 48 hours
# [15] = test system: Nocardia asteroides; experiment: Antimicrobial spectrum (MIC); assay type: cell-based; settings: 37° C., 24 or 48 hours
# [16] = test system: Shigella dysenteriae Shiga; experiment: microbe, parasite or virus in culture; assay type: cell-based
# [17] = test system: Klebsiella pneumoniae; experiment: Antimicrobial spectrum (MIC); assay type: cell-based; settings: 1% glucose nutrient agar, 37° C., 24 or 48 hours
# [18] = test system: Brucella abortus; experiment: microbe, parasite or virus in culture; assay type: cell-based
# [19] = test system: Pseudomonas aeruginosa; experiment: Antimicrobial spectrum (MIC); assay type: cell-based; settings: 1% glucose nutrient agar, 37° C., 24 or 48 hours
# [20] = Biological activity compared between saframycins
# [21] = test system: various microorganisms; experiment: Growth inhibition of various microorganisms; assay type: cell-based; settings: at low concentrations
# [22] = test system: leukemia L1210; experiment: Antitumor activity, leukemia L1210; assay type: in vivo; settings: mouse tumor
# [23] = test system: leukemia P388; experiment: Antitumor activity, leukemia P388; assay type: in vivo; settings: mouse tumor
# [24] = test system: melanoma B16; experiment: Antitumor activity, melanoma B16; assay type: in vivo; settings: mouse tumor
# [25] = test system: Ehrlich's ascites tumor; experiment: Antitumor activity, Ehrlich's ascites tumor; assay type: in vivo; settings: mouse tumor
# [26] = test system: S-180 solid cancer; experiment: Antitumor activity, S-180 solid cancer; assay type: in vivo; settings: mouse tumor
# [27] = test system: gastric cancer of man; experiment: Growth inhibition of gastric cancer of man heterotransplanted to the nude mouse; assay type: in vivo
# [28] = test system: DNA of transplantable cancer cells; experiment: Mechanism of action: reaction with DNA of transplantable cancer cells
# [29] = test system: synthesis of ribosomal RNA and messenger RNA; experiment: Mechanism of action: synthesis of ribosomal RNA and messenger RNA; settings: transplantable cancer cells
# [30] = test system: RNA synthesis (Escherichia coli RNA polymerase, calf thymus DNA); experiment: RNA synthesis in in vitro reaction mixture; assay type: biochemical
# [31] = test system: tumor; settings: Japanese Patent Lay Open No. 44098/1979; cited from earlier work
# [32] = test system: Staphylococcus aureus 209P; experiment: Antimicrobial spectrum (MIC); assay type: cell-based; settings: 1% glucose nutrient agar, 37° C., 24 or 48 hours
# [33] = test system: Staphylococcus salivarius; experiment: Antimicrobial spectrum (MIC); assay type: cell-based; settings: 1% glucose nutrient agar, 37° C., 24 or 48 hours
# [34] = test system: Escherichia coli; experiment: Antimicrobial spectrum (MIC); assay type: cell-based; settings: 1% glucose nutrient agar, 37° C., 24 or 48 hours
# [35] = test system: Salmonella typhimurium; experiment: Antimicrobial spectrum (MIC); assay type: cell-based; settings: 1% glucose nutrient agar, 37° C., 24 or 48 hours
# [36] = test system: Serratia marcescens; experiment: Antimicrobial spectrum (MIC); assay type: cell-based; settings: 1% glucose nutrient agar, 37° C., 24 or 48 hours
# [37] = test system: Aspergillus oryzae; experiment: Antimicrobial spectrum (MIC); assay type: cell-based; settings: Sabouraud dextrose agar, 27° C., 48 hours
# Description: (§1) Medium and culture condition:
# [38] = test system: Mucor mucedo; experiment: Antimicrobial spectrum (MIC); assay type: cell-based; settings: Sabouraud dextrose agar, 27° C., 48 hours
# Description: as §1
# [39] = test system: Pencillium glaucum; experiment: Antimicrobial spectrum (MIC); assay type: cell-based; settings: Sabouraud dextrose agar, 27° C., 48 hours
# Description: as §1
# [40] = test system: Rhodotorula glutinis; experiment: Antimicrobial spectrum (MIC); assay type: cell-based; settings: Sabouraud dextrose agar, 27° C., 48 hours
# Description: as §1
# [41] = test system: Saccharomyces cerevisiae; experiment: Antimicrobial spectrum (MIC); assay type: cell-based; settings: Sabouraud dextrose agar, 27° C., 48 hours
# Description: as §1
# [42] = test system: Trichophyton mentagrophytes; experiment: Antimicrobial spectrum (MIC); assay type: cell-based; settings: Sabouraud dextrose agar, 27° C., 48 hours
# Description: as §1
# [43] = test system: male DDY strain mice; experiment: Acute toxicity LD50 in male DDY strain mice; assay type: in vivo, mouse; settings: male DDY mice 18-20 g
# [44] = test system: mouse lymphoid leukemia P388; experiment: Effects on mouse lymphoid leukemia P388 in BDF1 mice; assay type: in vivo; settings: for survival period of treated group over survival period of control group: i.p., 1×10^6 cells i.p., BDF1 mice; for increase of survival period: treatment 1-10 diseased days, 1×10^6 cells
# Description: The effects of saframycin S on mouse lymphoid leukemia P388 were studied with BDF1 mice.
# [45] = test system: gram-positive bacteria and some acidfast bacteria or gram-negative bacteria; experiment: Antibacterial activity, summary of spectrum; assay type: cell-based
# [46] = test system: transplantable tumors; experiment: Activity against transplantable tumors; settings: in vivo
# [47] = test system: Aspergillus niger; experiment: Antimicrobial spectrum (MIC); settings: Sabouraud dextrose agar, 27° C., 48 hours
# [48] = test system: Candida albicans 7N; experiment: Antimicrobial spectrum (MIC); settings: Sabouraud dextrose agar, 27° C., 48 hours
# [49] = 1% glucose nutrient agar, 37° C., 24 or 48 hours
smiles,measurement,setting,value
"COC1=C(C)C(=O)C2=C(C1=O)C1C3CC4=C(C(=O)C(OC)=C(C)C4=O)C(CNC(=O)C(C)=O)N3C(C#N)C(C2)N1C (centres unmarked) [Saframycin A, reference compound]",MIC,"[1]; Staphylococcus aureus, read-out: MIC",0.025 mg/L
same,MIC,"[2]; Staphylococcus, read-out: MIC",0.006 mg/L
same,MIC,"[3]; Staphylococcus, read-out: MIC",0.006 mg/L
same,MIC,"[4]; Enterococcus faecalis, read-out: MIC",1.56 mg/L
same,MIC,"[5]; Streptococcus pyogenes, read-out: MIC",1.56 mg/L
same,MIC,"[6]; Streptococcus pyogenes, 090R, read-out: MIC",3 mg/L
same,MIC,[7],0.006 mg/L
same,MIC,"[8]; Bacillus subtilis, PCI219, read-out: MIC",0.025 mg/L
same,MIC,"[9]; Bacillus cereus, read-out: MIC",0.4 mg/L
same,MIC,[10]; Corynebacterium,0.001 mg/L
same,MIC,"[11]; Corynebacterium xerosis, read-out: MIC",0.012 mg/L
same,MIC,"[12]; Mycobacterium, SP.607, read-out: MIC",1.56 mg/L
same,MIC,"[13]; Mycolicibacterium phlei, read-out: MIC",1.56 mg/L
same,MIC,"[14]; Mycobacterium avium, read-out: MIC",100 mg/L
same,MIC,"[15]; Nocardia asteroides, read-out: MIC",50 mg/L
same,MIC,[16]; Shigella dysenteriae,1.56 mg/L
same,MIC,"[17]; Klebsiella pneumoniae, read-out: MIC",1.56 mg/L
same,MIC,[18]; Brucella abortus,1.56 mg/L
same,MIC,"[19]; Pseudomonas aeruginosa, read-out: MIC",100 mg/L
same,biological activity among saframycins A-E,[20]; among saframycins A-E,highest biological activity
same,inhibition of growth of various microorganisms,[21],effective in inhibiting the growth of various microorganisms at low concentrations
same,effect on leukemia L1210,[22],effective
same,effect on leukemia P388,[23],effective
same,effect on melanoma B16,[24],effective
same,effect on Ehrlich's ascites tumor,[25],effective
same,effect on S-180 solid cancer,[26],effective
same,inhibition of growth of gastric cancer of man,[27],effective in inhibiting the growth of gastric cancer of man
same,"reaction with DNA, inhibition of template activity",[28],specifically reacted with DNA of transplantable cancer cells to inhibit their template activity
same,synthesis of ribosomal RNA and messenger RNA,[29],prevented synthesis of ribosomal RNA and messenger RNA
same,inhibition of RNA synthesis in vitro,"[30]; Escherichia coli RNA polymerase, calf thymus DNA, RNA precursor, no reducing agent",did not inhibit RNA synthesis
same,inhibition of RNA synthesis in vitro,[30]; with dithiothreitol (DTT) and other reducing agent,RNA synthesis inhibition equivalent to in vivo effect was observed
same,antitumor effect,[31],strong antitumor effect
COC1=C(C)C(=O)C2=C(C1=O)[C@@H]1[C@@H]3CC4=C(C(=O)C(OC)=C(C)C4=O)[C@H](CNC(=O)C(C)=O)N3[C@@H](O)[C@H](C2)N1C [Saframycin S],MIC,[32],0.01 mg/L
same,MIC,[1],0.001 mg/L
same,MIC,[2],0.001 mg/L
same,MIC,[3],0.001 mg/L
same,MIC,[4],1.56 mg/L
same,MIC,[5],0.05 mg/L
same,MIC,[6],0.05 mg/L
same,MIC,[33],25.0 mg/L
same,MIC,[7]; [49],0.006 mg/L
same,MIC,[8],0.025 mg/L
same,MIC,[9],0.4 mg/L
same,MIC,[10]; [49],0.001 mg/L
same,MIC,[11],0.001 mg/L
same,MIC,[12],1.56 mg/L
same,MIC,[13],0.8 mg/L
same,MIC,[14],50.0 mg/L
same,MIC,[15],6.25 mg/L
same,MIC,[34],25.0 mg/L
same,MIC,[35],100 mg/L
same,MIC,[16]; [49],1.56 mg/L
same,MIC,[17],1.56 mg/L
same,MIC,"[18]; blood agar, 37° C., 24 or 48 hours",0.8 mg/L
same,MIC,[36],50.0 mg/L
same,MIC,[19],100 mg/L
same,MIC,[37],100 mg/L
same,MIC,[38],100 mg/L
same,MIC,[39],100 mg/L
same,MIC,[40],100 mg/L
same,MIC,[41],50 mg/L
same,MIC,[42],50 mg/L
same,LD50,[43]; intraperitoneal injection,2.5 mg/kg
same,LD50,[43]; intravenous injection,0.83 mg/kg
same,survival period of treated group over survival period of control group,[44]; 0.5 mg/kg daily for 10 days,146.2%
same,increase of survival period,[44]; 0.5 mg/kg/day,46.2%
same,survival period of treated group over survival period of control group,[44]; 0.75 mg/kg daily for 10 days,157.7%
same,increase of survival period,[44]; 0.75 mg/kg/day,57.7%
same,survival period of treated group over survival period of control group,[44]; 1.0 mg/kg daily for 10 days,161.5%
same,increase of survival period,[44]; 1.0 mg/kg/day,61.5%
same,survival period of treated group over survival period of control group,[44]; 1.5 mg/kg daily for 10 days,182.7%
same,increase of survival period,[44]; 1.5 mg/kg/day,82.7%
same,antibacterial activity,[45],"antibacterial activities mainly against gram-positive bacteria; also recorded: antibacterial activity mainly against gram-positive bacteria and some acidfast bacteria or gram-negative bacteria such as Mycobacterium, Shigella dysenteriae Shiga and Brucella"
same,biological activities relative to saframycin A,[20]; compared with saframycin A,still more powerful biological activities in every point than saframycin A; also recorded: almost equal to that of saframycin A
same,activity against transplantable tumors,[46],activity against transplantable tumors
same,MIC,[47],> 100 mg/L
same,MIC,[48],> 100 mg/L
